Laboratory results reported in US8058395B2, “Chimeric protein comprising a green fluorescent ptotein fused to a transcription factor” (The United States of America as represented by the …, priority 1995, dated 2011).

Assays:
Type in all cases: cell-based
GFP-GR [1] = target: T1, GFP-GR (Rattus norvegicus, UniProt P06536, C656G/D98G); assay: Intranuclear accumulation pattern (foci) of GFP-GR, confocal microscopy and 3D reconstruction; conditions: ligand-treated cells
T1 construct: expressed in transfected cells; host or cells: 1471.1 cells (murine C127 adenocarcinoma derivative); 3134 cells (C127 derivative) for gene targeting

GFP-GR [2] = target: T1, GFP-GR; assay: Activation of endogenous multi-copy MMTV LTR-CAT reporter in 1471.1 cells expressing GFP-GR (ligand specificity); conditions: 4 hrs, dex 1 nM and 10 nM, RU486 10 nM
GFP-GR [3] = target: T1, GFP-GR; assay: Cytoplasm-to-nuclear translocation of GFP-GR in living transfected murine adenocarcinoma cells (video/confocal microscopy)

C[C@]12CC[C@@H]3c4ccc(O)cc4CC[C@H]3[C@@H]1CC[C@@H]2O [17-β-estradiol]
intranuclear focal accumulation pattern of GFP-GR (GFP-GR [1]): not observed
activation of MMTV LTR-CAT reporter (GFP-GR [2]): fails to activate
extent of GFP-GR cytoplasm-to-nuclear translocation (GFP-GR [3]; 10 nM ligand, 30 min at 37° C.): did not cause intranuclear GFP-GR accumulation

C[C@@H]1C[C@H]2[C@@H]3CCC4=CC(=O)C=C[C@]4(C)[C@@]3(F)[C@@H](O)C[C@]2(C)[C@@]1(O)C(=O)CO [dexamethasone]
fluorescing cells in which translocation of GFP-GR occurs (GFP-GR [3]): 100%
